Data published in patent publication EP0999856B1, “RADIOPHARMACEUTICALS FOR IMAGING INFECTION AND INFLAMMATION” (Bristol-Myers Squibb Pharma Company, priority 1996, dated 1998).

Target: PMN LTB4 receptor (Homo sapiens, UniProt Q15722)
Assay: LTB4 Human Neutrophil (PMN) Binding Assay
Experimental: Heparinized blood was placed on a ficol gradient followed by its sedimentation with dextran. […] The PMN solution was adjusted to achieve a concentration of 8 X 10^6 PMN/ml. […] Very briefly, the assay was performed as follows; [3H]LTB4 (1 nM) and test agent were placed into a 96 well microplate with filters (0.65 µm pore size). PMN solution (8 x 10^6/ml) was added and the microplate incubated for 10 min at 4° C. The microplate was then placed on Millipore filtration system; the wells washed with cold saline (3 x) and dried. The filters were removed from the microplate; placed into scintillation fluid and the concentration of [3H]LTB4 determined.

PMN LTB4 receptor, sequence (Q15722 whole entry): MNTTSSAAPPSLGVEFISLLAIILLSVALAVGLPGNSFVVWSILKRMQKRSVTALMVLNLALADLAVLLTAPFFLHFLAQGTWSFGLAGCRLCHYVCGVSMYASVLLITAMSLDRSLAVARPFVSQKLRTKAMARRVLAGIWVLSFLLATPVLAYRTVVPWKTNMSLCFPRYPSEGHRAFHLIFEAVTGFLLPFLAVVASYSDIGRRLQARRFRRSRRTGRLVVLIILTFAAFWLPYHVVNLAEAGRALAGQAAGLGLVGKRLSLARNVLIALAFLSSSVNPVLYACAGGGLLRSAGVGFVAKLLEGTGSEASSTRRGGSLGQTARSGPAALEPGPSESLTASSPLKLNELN

Ki: 8 nM
Compound: CCc1cc(-c2ccc(F)cc2)c(O)cc1OCCCCC(C)(C)CNC(=O)c1ccc(NN=Cc2ccccc2)nc1 [IIa]
